This note sets out measurements from ChEMBL document CHEMBL1201862, “PubChem BioAssay data set” (2004).

Among the test systems are 786-0; CAKI-1; COLO 205; DU-145; HT-29; M14; MCF7; MDA-MB-231; Malme-3M; NCI-H23; OVCAR-5; PC-3; SF-295; SNB-75; SR; SW-620; T47D; LOX IMVI; SK-OV-3.
Common to all, as to assay: inhibition of tumour cell growth, NCI panel, 48 h

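Following 48 hours of exposure in 96-well plates, responses at five concentrations were used to interpolate endpoints linearly. GI50 = concentration required for 50% inhibition of growth.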 Calls of active or inactive are those of the source. Rule as the data show it: active = GI50 up to about 1.1 µM and inactive = higher.

Take `O=C(/C=C/c1ccc(O)c(O)c1)OCCc1cccc2ccccc12`: the GI50 with 786-0 is 3 µM (inactive); in the assay on CAKI-1, 8.36 µM (inactive); with COLO 205, 5.69 µM (inactive); in the assay with DU-145, 5.48 µM (inactive); in the assay on HT-29, 13.4 µM (inactive); with M14, 5.65 µM (inactive). For the same molecule, the GI50 was 7.31 µM (inactive) with MCF7; 2.33 µM (inactive) in the assay on MDA-MB-231; 6.5 µM (inactive) in the assay on Malme-3M; 3.72 µM (inactive) in the assay on NCI-H23; 14.4 µM (inactive) in the assay on OVCAR-5; 3.88 µM (inactive) with PC-3. Moreover, the GI50 with SF-295 is 5.26 µM (inactive); in the assay with SNB-75, 2.52 µM (inactive); in the assay on SR, 0.841 µM (active); with SW-620, 5.07 µM (inactive); with T47D, 12.6 µM (inactive).
For `CCSC1=C(C#N)C2(CCCCC2)C2=C(O)CC(C)(C)CC2=N1`, the GI50 with 786-0 is 31.8 µM (inactive); in the assay with CAKI-1, 35.3 µM (inactive); in the assay with COLO 205, > 100 µM (inactive); with DU-145, 25.5 µM (inactive); in the assay with HT-29 it was > 100 µM (inactive); in the assay with LOX IMVI it was > 100 µM (inactive). Further, the GI50 was > 100 µM (inactive) with M14; 48.3 µM (inactive) with MCF7; 45.3 µM (inactive) in the assay on MDA-MB-231; 17.3 µM (inactive) in the assay on Malme-3M; 32.4 µM (inactive) in the assay on NCI-H23; > 100 µM (inactive) in the assay on OVCAR-5. The GI50 with PC-3 was 28.9 µM (inactive); in the assay on SNB-75 it was 21.9 µM (inactive); in the assay on SR, > 100 µM (inactive); in the assay on SW-620 it was > 100 µM (inactive); with T47D, 86.1 µM (inactive).
In the case of `Cc1nc(N(C(C)C)C(C)C)c(C(C)C)o1`, the GI50 in the assay with 786-0, in the assay with CAKI-1, with COLO 205, in the assay with DU-145, in the assay on HT-29 and with LOX IMVI was > 100 µM (inactive) throughout. Moreover, the GI50 in the assay with M14, with MCF7, with MDA-MB-231, in the assay with Malme-3M, with NCI-H23 and in the assay on OVCAR-5 was > 100 µM (inactive) in each case. Further, the GI50 in the assay with PC-3, in the assay on SF-295, in the assay on SK-OV-3, with SNB-75, with SW-620 and in the assay with T47D was > 100 µM (inactive) throughout.
On to `Cc1nc2ccc(Cl)cc2c2c1CCO2`, for which the GI50 in the assay with 786-0 was > 100 µM (inactive); with CAKI-1, 43.4 µM (inactive); with COLO 205, 83.9 µM (inactive); in the assay with DU-145 it was 86.5 µM (inactive); with HT-29 it was 95.1 µM (inactive); with LOX IMVI, 67.5 µM (inactive). Further, the GI50 in the assay with MCF7 is > 100 µM (inactive); in the assay on MDA-MB-231, 43.5 µM (inactive); in the assay with Malme-3M, > 100 µM (inactive); with NCI-H23, > 100 µM (inactive); in the assay with PC-3 it was 88.1 µM (inactive); with SF-295, 75.7 µM (inactive). Moreover, the GI50 in the assay on SNB-75 was 69.3 µM (inactive); in the assay on SR, > 100 µM (inactive); in the assay on SW-620 it was > 100 µM (inactive); in the assay on T47D, 88.7 µM (inactive).
As to `CCOC(=O)[C@H](C)OC(=O)[C@@](C)(NC(=O)c1ccccc1C(=O)OC)[C@@H]1NC=C(C(=O)OC)CS1`, the GI50 with 786-0, in the assay with CAKI-1, with COLO 205, in the assay on DU-145, in the assay with HT-29 and with M14 was > 100 µM (inactive) each time. Also, the GI50 in the assay with MCF7 was 79.1 µM (inactive); in the assay with MDA-MB-231 it was > 100 µM (inactive); in the assay with Malme-3M, 97.3 µM (inactive); in the assay with NCI-H23 it was > 100 µM (inactive); in the assay with OVCAR-5, > 100 µM (inactive); with PC-3 it was > 100 µM (inactive). Moreover, the GI50 was > 100 µM (inactive) in the assay with SF-295; > 100 µM (inactive) in the assay on SK-OV-3; 25.4 µM (inactive) in the assay on SNB-75; 20.4 µM (inactive) with SR; > 100 µM (inactive) in the assay with SW-620; 91.2 µM (inactive) in the assay with T47D.
Turning to `OC1(c2ccccc2)CCN(Cc2c[nH]c3ccccc23)CC1`, the GI50 with 786-0 was 44 µM (inactive); with CAKI-1, > 100 µM (inactive); with COLO 205, 17.5 µM (inactive); with DU-145, > 100 µM (inactive); with HT-29 it was 42.9 µM (inactive); in the assay on LOX IMVI, 76.4 µM (inactive). The GI50 with M14 is 17.5 µM (inactive); with MCF7, 50.5 µM (inactive); with MDA-MB-231 it was 81.3 µM (inactive); in the assay with Malme-3M, 23.2 µM (inactive); in the assay on NCI-H23 it was 96.6 µM (inactive); with OVCAR-5, > 100 µM (inactive). The GI50 with PC-3 was > 100 µM (inactive); in the assay with SF-295, 92.7 µM (inactive); in the assay with SK-OV-3, > 100 µM (inactive); in the assay on SNB-75, > 100 µM (inactive); in the assay on SW-620, > 100 µM (inactive); with T47D, 35.6 µM (inactive).
For `CC(=O)C1=C(C)N2C(=NC3=C(CCc4ccccc43)C2c2ccc(Cl)cc2)S1` (stereo not drawn), the GI50 is > 52.4 µM (inactive) in the assay on 786-0; > 100 µM (inactive) with CAKI-1; 21.4 µM (inactive) in the assay with COLO 205; > 100 µM (inactive) in the assay on DU-145; 7.45 µM (inactive) in the assay on HT-29; > 81.1 µM (inactive) in the assay with LOX IMVI. The GI50 in the assay with M14 was > 40.4 µM (inactive); in the assay on MCF7, 20.5 µM (inactive); in the assay on MDA-MB-231, > 100 µM (inactive); with Malme-3M, 48.5 µM (inactive); in the assay with NCI-H23, 71.1 µM (inactive); in the assay on OVCAR-5, > 100 µM (inactive). The GI50 in the assay on PC-3 is 10.2 µM (inactive); with SF-295, > 100 µM (inactive); with SK-OV-3, > 100 µM (inactive); with SNB-75, > 32.5 µM (inactive); with SW-620 it was > 33.3 µM (inactive); in the assay with T47D it was 5.53 µM (inactive).
As for `Cc1ccc(S(=O)(=O)c2c(O)c3ccc(O)c(C)c3oc2=O)cc1`, the GI50 in the assay on 786-0, with CAKI-1, with COLO 205, with DU-145, in the assay on HT-29 and with M14 was > 100 µM (inactive) in each case. Also, the GI50 in the assay on MCF7, in the assay with MDA-MB-231, with Malme-3M, in the assay on NCI-H23, in the assay on OVCAR-5 and in the assay with PC-3 was > 100 µM (inactive) throughout. Moreover, the GI50 with SF-295, with SK-OV-3, in the assay on SNB-75, in the assay on SR, with SW-620 and in the assay with T47D was > 100 µM (inactive) throughout.
For the molecule `CC(=O)Nc1cc2cc(NS(=O)(=O)c3cc(C(F)(F)F)cc(C(F)(F)F)c3)ccc2oc1=O`, the GI50 was 72.3 µM (inactive) in the assay on 786-0; > 100 µM (inactive) with CAKI-1; > 100 µM (inactive) with COLO 205; > 100 µM (inactive) in the assay on DU-145; > 100 µM (inactive) in the assay with HT-29; 98.6 µM (inactive) in the assay on LOX IMVI. The GI50 in the assay with M14, in the assay with MCF7, in the assay with MDA-MB-231, in the assay with Malme-3M, in the assay with NCI-H23 and in the assay on OVCAR-5 was > 100 µM (inactive) throughout. Also, the GI50 with PC-3, in the assay with SF-295, in the assay with SR, with SW-620 and with T47D was > 100 µM (inactive) in each case.
On to `CNc1ccc2c(c1)Cc1ccccc1-2`, for which the GI50 is 53 µM (inactive) in the assay on 786-0; 30.6 µM (inactive) in the assay on CAKI-1; 38.7 µM (inactive) in the assay with COLO 205; 31.9 µM (inactive) in the assay on DU-145; 30.3 µM (inactive) in the assay with HT-29; 50.9 µM (inactive) in the assay with LOX IMVI. The GI50 in the assay on M14 is 34.1 µM (inactive); in the assay with MCF7 it was 44.6 µM (inactive); in the assay with MDA-MB-231, 55.8 µM (inactive); in the assay on Malme-3M it was 37.9 µM (inactive); in the assay on NCI-H23, 75.2 µM (inactive); with OVCAR-5, 98.6 µM (inactive). Besides, the GI50 in the assay with PC-3 was 32.7 µM (inactive); with SF-295 it was 47.2 µM (inactive); in the assay with SNB-75, 52.6 µM (inactive); with SR, 27 µM (inactive); in the assay on SW-620, 53.6 µM (inactive); in the assay on T47D, 24.1 µM (inactive).
As for `O=c1ccc2ccc(O)cc2o1` [UMBELLIFERONE], the GI50 in the assay with 786-0, in the assay with CAKI-1, in the assay with COLO 205, in the assay with DU-145, with HT-29 and with LOX IMVI was > 100 µM (inactive) in each case. The GI50 with M14, in the assay on MCF7, in the assay with MDA-MB-231, with Malme-3M, in the assay on NCI-H23 and in the assay on OVCAR-5 was > 100 µM (inactive) in each case. The GI50 in the assay on PC-3, in the assay with SF-295, with SK-OV-3, with SNB-75, with SW-620 and in the assay with T47D was > 100 µM (inactive) throughout.
